# Measurements reported in US20170190671A1, “BIS(ARYL)CATECHOL DERIVATIVES AS HERBICIDES” (E I DU PONT DE NEMOURS AND COMPANY, priority 2014, published 2017).
# Tests used:
# Conditions in all cases: scale 0 to 100
# [1] = test system: chamomile (scentless chamomile, Matricaria inodora); assay: Test D preemergence; assay type: in vivo
# Text: (§1) Seeds of plant species selected from bluegrass (annual bluegrass, Poa annua), blackgrass (Alopecurus myosuroides), canarygrass (Phalaris minor), chickweed (common chickweed, Stellaria media), cutleaf geranium (Geranium dissectum), galium (catchweed bedstraw, Galium aparine), downy bromegrass (Bromus tectorum), field poppy (Papaver rhoeas), field violet (Viola arvensis), green foxtail (Setaria viridis), deadnettle (henbit deadnettle, Lamium amplexicaule), Italian ryegrass (Lolium multiflorum), kochia (Kochia scoparia), lambsquarters (Chenopodium album), oilseed rape (Brassica napus), pigweed (Amaranthus retroflexus), chamomile (scentless chamomile, Matricaria inodora), Russian thistle (Salsola kali), speedwell (bird's-eye speedwell, Veronica persica), spring barley (Hordeum vulgare), spring wheat (Triticum aestivum), wild buckwheat (Polygonum convolvulus), wild mustard (Sinapis arvensis), wild oat (Avenafatua), wild radish (Raphanus raphanistrum), windgrass (Apera spica-venti), winter barley (Hordeum vulgare), and winter wheat (Triticum aestivum) were planted into a silt loam soil and treated preemergence with test chemicals formulated in a non-phytotoxic solvent mixture which included a surfactant.
# (§2) At the same time, these species were planted in pots containing Redi-Earth® planting medium (Scotts Company, 14111 Scottslawn Road, Marysville, Ohio 43041) comprising spaghnum peat moss, vermiculite, wetting agent and starter nutrients and treated with postemergence applications of the test chemicals formulated in the same manner. Plants ranged in height from 2 to 18 cm (1- to 4-leaf stage). Treated plants and controls were maintained in a controlled growth environment for 14 to 21 days after which time all species were compared to controls and visually evaluated. Plant response ratings, summarized in Table D, are based on a scale of 0 to 100 where 0 is no effect and 100 is complete control. A dash (-) response means no test result.
# [2] = test system: Russian thistle (Salsola kali); assay: Test D preemergence; assay type: in vivo
# Text: as §1, §2
# [3] = test system: chickweed (common chickweed, Stellaria media); assay: Test D preemergence; assay type: in vivo
# Text: as §1, §2
# [4] = test system: field poppy (Papaver rhoeas); assay: Test D preemergence; assay type: in vivo
# Text: as §1, §2
# [5] = test system: spring wheat (Triticum aestivum); assay: Test D preemergence; assay type: in vivo
# Text: as §1, §2
# [6] = test system: canarygrass (Phalaris minor); assay: Test D preemergence; assay type: in vivo
# Text: as §1, §2
# [7] = test system: pigweed (Amaranthus retroflexus); assay: Test D preemergence; assay type: in vivo
# Text: as §1, §2
# [8] = test system: galium (catchweed bedstraw, Galium aparine); assay: Test D preemergence; assay type: in vivo
# Text: as §1, §2
# [9] = test system: bluegrass (annual bluegrass, Poa annua); assay: Test D preemergence; assay type: in vivo
# Text: as §1, §2
# [10] = test system: spring barley (Hordeum vulgare); assay: Test D preemergence; assay type: in vivo
# Text: as §1, §2
# wild oat (Avenafatua) = assay: Test D postemergence; assay type: in vivo, Avena fatua
# Text: as §1, §2
compound,measurement,setting,value
Fc1cnc(Oc2c(F)cccc2Oc2ncc(Cl)cn2)nc1 [Compound 23],"Plant response rating, Chamomile",[1]; 16 g ai/ha,20
same,"Plant response rating, Chamomile",[1]; 31 g ai/ha,75
same,"Plant response rating, Chamomile",[1]; 62 g ai/ha,75
same,"Plant response rating, Chamomile",[1]; 125 g ai/ha,100
same,"Plant response rating, Russian Thistle",[2]; 16 g ai/ha,0
same,"Plant response rating, Russian Thistle",[2]; 31 g ai/ha,0
same,"Plant response rating, Russian Thistle",[2]; 62 g ai/ha,5
same,"Plant response rating, Russian Thistle",[2]; 125 g ai/ha,5
same,"Plant response rating, Chickweed",[3]; 16 g ai/ha,50
same,"Plant response rating, Chickweed",[3]; 31 g ai/ha,100
same,"Plant response rating, Chickweed",[3]; 62 g ai/ha,100
same,"Plant response rating, Chickweed",[3]; 125 g ai/ha,100
same,"Plant response rating, Field Poppy",[4]; 16 g ai/ha,65
same,"Plant response rating, Field Poppy",[4]; 31 g ai/ha,80
same,"Plant response rating, Field Poppy",[4]; 62 g ai/ha,90
same,"Plant response rating, Field Poppy",[4]; 125 g ai/ha,98
same,"Plant response rating, Wheat, Spring",[5]; 16 g ai/ha,0
same,"Plant response rating, Wheat, Spring",[5]; 31 g ai/ha,5
same,"Plant response rating, Wheat, Spring",[5]; 62 g ai/ha,30
same,"Plant response rating, Wheat, Spring",[5]; 125 g ai/ha,45
same,"Plant response rating, Canarygrass",[6]; 16 g ai/ha,60
same,"Plant response rating, Canarygrass",[6]; 31 g ai/ha,65
same,"Plant response rating, Canarygrass",[6]; 62 g ai/ha,80
same,"Plant response rating, Canarygrass",[6]; 125 g ai/ha,85
same,"Plant response rating, Pigweed",[7]; 16 g ai/ha,98
same,"Plant response rating, Pigweed",[7]; 31 g ai/ha,100
same,"Plant response rating, Pigweed",[7]; 62 g ai/ha,100
same,"Plant response rating, Pigweed",[7]; 125 g ai/ha,100
same,"Plant response rating, Galium",[8]; 16 g ai/ha,70
same,"Plant response rating, Galium",[8]; 31 g ai/ha,75
same,"Plant response rating, Galium",[8]; 62 g ai/ha,95
same,"Plant response rating, Galium",[8]; 125 g ai/ha,100
same,"Plant response rating, Bluegrass",[9]; 16 g ai/ha,20
same,"Plant response rating, Bluegrass",[9]; 31 g ai/ha,65
same,"Plant response rating, Bluegrass",[9]; 62 g ai/ha,80
same,"Plant response rating, Bluegrass",[9]; 125 g ai/ha,100
same,"Plant response rating, Barley, Spring",[10]; 16 g ai/ha,0
same,"Plant response rating, Barley, Spring",[10]; 31 g ai/ha,5
same,"Plant response rating, Barley, Spring",[10]; 62 g ai/ha,30
same,"Plant response rating, Barley, Spring",[10]; 125 g ai/ha,75
same,"Plant response rating, Oat, Wild",wild oat (Avenafatua); 16 g ai/ha,15
same,"Plant response rating, Oat, Wild",wild oat (Avenafatua); 31 g ai/ha,15
same,"Plant response rating, Oat, Wild",wild oat (Avenafatua); 62 g ai/ha,20
same,"Plant response rating, Oat, Wild",wild oat (Avenafatua); 125 g ai/ha,35
FC(F)(F)c1cnc(Oc2c(Br)cccc2Oc2ncc(Cl)cn2)nc1 [Compound 24],"Plant response rating, Chamomile",[1]; 16 g ai/ha,55
same,"Plant response rating, Chamomile",[1]; 31 g ai/ha,100
same,"Plant response rating, Chamomile",[1]; 62 g ai/ha,100
same,"Plant response rating, Chamomile",[1]; 125 g ai/ha,100
same,"Plant response rating, Russian Thistle",[2]; 16 g ai/ha,0
same,"Plant response rating, Russian Thistle",[2]; 31 g ai/ha,0
same,"Plant response rating, Russian Thistle",[2]; 62 g ai/ha,35
same,"Plant response rating, Russian Thistle",[2]; 125 g ai/ha,80
same,"Plant response rating, Chickweed",[3]; 16 g ai/ha,10
same,"Plant response rating, Chickweed",[3]; 31 g ai/ha,100
same,"Plant response rating, Chickweed",[3]; 62 g ai/ha,100
same,"Plant response rating, Chickweed",[3]; 125 g ai/ha,100
same,"Plant response rating, Field Poppy",[4]; 16 g ai/ha,75
same,"Plant response rating, Field Poppy",[4]; 31 g ai/ha,100
same,"Plant response rating, Field Poppy",[4]; 62 g ai/ha,100
same,"Plant response rating, Field Poppy",[4]; 125 g ai/ha,100
same,"Plant response rating, Wheat, Spring",[5]; 16 g ai/ha,0
same,"Plant response rating, Wheat, Spring",[5]; 31 g ai/ha,0
same,"Plant response rating, Wheat, Spring",[5]; 62 g ai/ha,0
same,"Plant response rating, Wheat, Spring",[5]; 125 g ai/ha,40
same,"Plant response rating, Canarygrass",[6]; 16 g ai/ha,25
same,"Plant response rating, Canarygrass",[6]; 31 g ai/ha,30
same,"Plant response rating, Canarygrass",[6]; 62 g ai/ha,35
same,"Plant response rating, Canarygrass",[6]; 125 g ai/ha,45
same,"Plant response rating, Pigweed",[7]; 16 g ai/ha,60
same,"Plant response rating, Pigweed",[7]; 31 g ai/ha,100
same,"Plant response rating, Pigweed",[7]; 62 g ai/ha,100
same,"Plant response rating, Pigweed",[7]; 125 g ai/ha,100
same,"Plant response rating, Galium",[8]; 16 g ai/ha,0
same,"Plant response rating, Galium",[8]; 31 g ai/ha,25
same,"Plant response rating, Galium",[8]; 62 g ai/ha,85
same,"Plant response rating, Galium",[8]; 125 g ai/ha,70
same,"Plant response rating, Bluegrass",[9]; 16 g ai/ha,15
same,"Plant response rating, Bluegrass",[9]; 31 g ai/ha,20
same,"Plant response rating, Bluegrass",[9]; 62 g ai/ha,25
same,"Plant response rating, Bluegrass",[9]; 125 g ai/ha,35
same,"Plant response rating, Barley, Spring",[10]; 16 g ai/ha,0
same,"Plant response rating, Barley, Spring",[10]; 31 g ai/ha,20
same,"Plant response rating, Barley, Spring",[10]; 62 g ai/ha,30
same,"Plant response rating, Barley, Spring",[10]; 125 g ai/ha,85
same,"Plant response rating, Oat, Wild",wild oat (Avenafatua); 16 g ai/ha,15
same,"Plant response rating, Oat, Wild",wild oat (Avenafatua); 31 g ai/ha,20
same,"Plant response rating, Oat, Wild",wild oat (Avenafatua); 62 g ai/ha,25
same,"Plant response rating, Oat, Wild",wild oat (Avenafatua); 125 g ai/ha,35
